From patent publication US4760085A, “Use of D,L-and D-carazolol as anti-glaucoma agent” (Boehringer Mannheim GmbH, priority 1983, dated 1988)
Read-outs that look alike come from different tables or passages of the source.

Columns and labels:
[1] = tested on: pressure of the eye in glaucoma patients; details: glaucoma patients (Krieglstein 1978); cited from earlier work
[2] = Side effects observed in the experiments (species not stated); format: in vivo
glaucoma patients [3] = test: Compatibility / side effects of eye drops in humans; format: in vivo
Method: (§1) For this purpose, patients were treated once per day with D,L-carazolol eye drops.

[4] = tested on: intraocular pressure in water loaded rabbits; test: Intraocular pressure reduction in water loaded conscious rabbits; format: in vivo; details: one drop of 0.05% solution; for Reduction of the intraocular pressure in water loaded rabbits after administration of 0.05% solution: conscious rabbits, water loading
Method: For measurement of an intraocular pressure-reducing effect the intraocular pressure in some test animals (rabbits) were increased by means of water loading (Method: Th. McDonalds et al in Arch. Ophtal. 82, p. 381, 1969). Thereafter the influence of one drop of a 0,05% solution of D,L-carazolol respectively the enantiomeres thereof were measured.

[5] = tested on: tachycardic effect of 1 mcg/kg i.v. Isoprenaline (β-blocking); test: β-blocking activity: inhibition of isoprenaline-induced tachycardia in conscious rabbits; format: in vivo; details: for ED50: Oryctolagus cuniculus, iv, read-out: β-blocking activity ID50 (inhibition dose 50% of the tachycardic effect of 1 mcg/kg i.v. Isoprenaline)
Method: D,L-Carazolol, D-carazolol and L-carazolol were tested in respect to a β-blocking and intraocular pressure-reducing activity. The β-blocking activity was measured by means of a tachycardic effect caused by 1 μg/kg i.v. isoprenaline (Dr. Bartsch et al in Drug Research 27 (I), 5, p. 1022 et seq (1977).

[6] = tested on: internal eye pressure in glaucoma patients; test: Lowering of internal eye pressure in humans (glaucoma patients), eye drops; format: in vivo
Method: as §1

[7] = tested on: internal pressure of the eye; test: Experiments on lowering of the internal pressure of the eye (species not stated); format: in vivo
β-blocking action [8] = details: Circ. Res., 49, 326-336/1981; cited from earlier work
glaucoma patients [9] = details: cited from earlier work
β-blocking action [10] = details: humans and animals; cited from earlier work
[11] = D-carazolol, concentration not given
[12] = 0.01% solution of D,L-carazolol

CC(C)NCC(O)COc1cccc2ccccc12 (stereo not shown) [propranolol]
reduction of the pressure of the eye [1]: can reduce the pressure of the eye in glaucoma patients

CC(C)NC[C@@H](O)COc1cccc2[nH]c3ccccc3c12 [D-Carazolol, R(+)-1-carbazolyl-(4)-oxy-3-isopropylaminopropan-2-ol]
systemic side effects typical of β-blockers [2, 11]: without the occurrence of systemic side effects which are typical of β-blockers
side effects (glaucoma patients [3]; D-carazolol and salts thereof): in no case were side effects observed
Reduction of the intraocular pressure in water loaded rabbits after administration of 0.05% solution [4]: 21%
intraocular pressure-reducing activity (in words) ([4]; water loaded rabbits): most effective compound
ED50 [5]: 222 µg/kg
lowering of internal eye pressure ([6]; D-carazolol and salts thereof): significant lowering of the internal eye pressure
lowering of the internal pressure of the eye [7, 11]: significant lowering of the internal pressure of the eye
β-blocking action (β-blocking action [8]): no such action was ascertained

CC(C)NC[C@H](O)COc1cccc2[nH]c3ccccc3c12 [L-Carazolol]
Reduction of the intraocular pressure in water loaded rabbits after administration of 0.05% solution [4]: 5%
ED50 [5]: 1.6 µg/kg

CC(C)(C)NC[C@H](O)COc1nsnc1N1CCOCC1 [Timolol, S-(-)-1-(tert.-butylamino)-3-[(4-morpholino-1,2,5-thiadiazol-3-yl)-oxy]-propan-2-ol]
rare but very serious incidents as a result of the β-blockade (glaucoma patients [9]; after administration of timolol (Vonwil et al. 1981)): asthmatic attacks, heart rhythm disturbances and even some fatal cases
side effects in glaucoma therapy (glaucoma patients [9]; commercially available 0.5% solution, especially long-term therapy (Nielsen 1981)): significant lowering of the blood pressure and the development of dry eyes

CC(C)NCC(O)COc1cccc2[nH]c3ccccc3c12 (racemic) [D,L-Carazolol, (D,L)-1-carbazolyl-(4)-oxy-3-isopropylaminopropan-2-ol]
β-blocking action (β-blocking action [10]): outstanding β-blocking action
undesired side effects [2, 12]: without any undesired side effects being observed
known side effects (anaesthetised feeling in the eye or head region, strong burning sensation) (glaucoma patients [3]; humans, 0.01% solution): did not give rise to any of the known side effects
compatibility (glaucoma patients [3]; humans, eye drops): good compatibility
Reduction of the intraocular pressure in water loaded rabbits after administration of 0.05% solution [4]: 12%
ED50 [5]: 3 µg/kg
β-blocking activity (in words) ([5]; isoprenaline tachycardia): good β-blocking activity
lowering of internal eye pressure ([6]; glaucoma patients, D,L-carazolol eye drops once per day, 0.005 to 0.03%): significantly lower the internal eye pressure in glaucoma patients
lowering of the inner pressure of the eye [7, 12]: significant lowering of the inner pressure of the eye
